Test results published in EP4786485A1, “STRAIGHT CHAIN PEPTIDE COMPOUND AND USE THEREOF” (Shenzhen Zhongge Biological Technology Co., Ltd., priority 2023, dated 2026).
Where a SMILES comes first, the peptide text is derived from it. [ ]: non-standard residue; d: D form. The star is where a group is joined. Biotin = O=C1N[C@H]2[C@H](CS[C@H]2CCCCC(=O)*)N1; Phe(3,4-Cl2) = N[C@@H](Cc1ccc(Cl)c(Cl)c1)C(=O)O; Lys(Me3) = C[N+](C)(C)CCCC[C@H](N)C(=O)O; Phe(4-Me) = Cc1ccc(C[C@H](N)C(=O)O)cc1; Palmitoyl = CCCCCCCCCCCCCCCC(=O)*; Ahp = NCCCCCCC(=O)O; βAla = NCCC(=O)O

Tests used:
Format in all cases: cell-based, Human
Elastin (ELN) = experiment: ELISA: effect of increasing the content of Elastin in fibroblasts; set-up: Effect of increasing the content of Elastin in the fibroblasts: unit not given here; details: 1 µM; for Effect of increasing the content of Elastin in the fibroblasts: 24 h incubation, ELISA, blank control (BC) 756.52; for increase in the content of Elastin: in words, compared to the BC, 24 h, fibroblasts
Description: (§1) B. Effects of increasing the contents of Collagen I (type I collagen), hyaluronic acid (HA), and Elastin (ELN) in fibroblasts
(§2) Test materials: Human-derived fibroblasts (Guangdong BioCell Biotechnology Co., Ltd., Lot No. Fb20081902), DMEM culture medium (Gibco, 23042301, expiration date 230522), PBS (Solarbio, P1010), TGF-β1 (Peprotech, 230504), Collagen I ELISA Kit (Cusabio, B21025824), Elastin ELISA Kit (Abcam, GR3446070-2), HA ELISA Kit (RD, P325066), CO2 incubator (Thermo, 150I), super-clean bench (AIRTECH, SW-CJ-1F), and microplate reader (BioTek, Epoch).
(§3) Test methods: • 1) Inoculation: After cell resuscitation, the cells were inoculated into 6-well plates when the plating rate reached around 60%, and were incubated overnight in an incubator (37°C, 5% CO2). • 2) Formulation of solutions: The linear peptide compounds in the sample groups, and PC2 (Biotinoyl-GHK, [drawing 69] ) and PC3 ( [drawing 70] ) in the positive control group were all at the concentration of 1 µM, and the test substance working solutions were formulated. • 3) Administration: When the cell plating rate in the 6-well plates reached 40% to 60%, administration was performed at 2 mL per well. Three duplicate wells were set for each group. Incubation was performed in an incubator (37°C, 5% CO2) for 24 h. • 4) ELISA assay: The ELISA assays were performed according to the instructions of the respective ELISA kits, with the detection indicators being effect of increasing the content of Collagen I in the fibroblasts, effect of increasing the content of HA in the fibroblasts, and effect of increasing the content of Elastin in the fibroblasts, respectively.

[1] = test system: Collagen I (type I collagen); experiment: ELISA: effect of increasing the content of Collagen I in fibroblasts; set-up: Effect of increasing the content of Collagen I in the fibroblasts: unit not given here; details: 1 µM, 24 h; for Effect of increasing the content of Collagen I in the fibroblasts: human-derived fibroblasts, ELISA, blank control BC = 35.6; for increase in the content of type I collagen (Collagen I): in words, compared to the BC, fibroblasts
Description: as §1, §2, §3

hyaluronic acid (HA) = experiment: ELISA: effect of increasing the content of HA in fibroblasts; set-up: Effect of increasing the content of HA in the fibroblasts: unit not given here; details: 1 µM, 24 h; for Effect of increasing the content of HA in the fibroblasts: human-derived fibroblasts, ELISA, blank control BC = 1402.44; for increase in the content of hyaluronic acid (HA): in words, compared to the BC, fibroblasts
Description: as §1, §2, §3

| SMILES | Effect of increasing the content of Elastin in the fibroblasts (Elastin (ELN)) | increase in the content of Elastin (Elastin (ELN)) | Effect of increasing the content of Collagen I in the fibroblasts [1] | increase in the content of type I collagen (Collagen I) [1] | Effect of increasing the content of HA in the fibroblasts (hyaluronic acid (HA)) | increase in the content of hyaluronic acid (HA) (hyaluronic acid (HA)) |
| --- | --- | --- | --- | --- | --- | --- |
| CNC(=O)[C@H](CCCCN)NC(=O)[C@H](Cc1c[nH]cn1)NC(=O)CNC(=O)CCCCCCNC(=O)[C@H](CCCCN)NC(=O)[C@H](Cc1c[nH]cn1)NC(=O)CNC(C)=O [compound 6] (Ac-GHK[Ahp]GHK-NHMe) | 1070.92 | significant increase | 44.54 | significant increase | – | – |
| CNC(=O)[C@H](CCCCN)NC(=O)[C@H](Cc1c[nH]cn1)NC(=O)CNC(=O)CCNC(=O)CCNC(=O)[C@H](CCCCN)NC(=O)[C@H](Cc1c[nH]cn1)NC(=O)CNC(C)=O [compound 21] (Ac-GHK[βAla][βAla]GHK-NHMe) | 1160.14 | significant increase | – | – | 2423.11 | significant increase |
| CNC(=O)[C@H](CCCCN)NC(=O)[C@H](Cc1c[nH]cn1)NC(=O)CNC(=O)[C@H](C)NC(=O)[C@H](C)NC(=O)[C@H](C)NC(=O)[C@H](CCCCN)NC(=O)[C@H](Cc1c[nH]cn1)NC(=O)CNC(C)=O [compound 23] (Ac-GHKAAAGHK-NHMe) | 1097.64 | significant increase | 46.06 | significant increase | 2533.64 | significant increase |
| CNC(=O)CNC(=O)[C@H](Cc1c[nH]cn1)NC(=O)[C@H](CCCCN)NC(=O)CCNC(=O)CCNC(C)=O [compound 76] (Ac-[βAla][βAla]KHG-NHMe) | 1061.55 | significant increase | 47.05 | significant increase | 2607.31 | significant increase |
| CNC(=O)CNC(=O)[C@H](Cc1c[nH]cn1)NC(=O)[C@H](CCCCN)NC(=O)CCCCCCNC(C)=O [compound 77] (Ac-[Ahp]KHG-NHMe) | 1093.49 | significant increase | 89.94 | significant increase | 3493 | significant increase |
| CCCCCCCCCCCCCCCC(=O)NCCCCCCC(=O)N[C@@H](CCCCN)C(=O)N[C@@H](Cc1c[nH]cn1)C(=O)NCC(=O)O [compound 224] ({Palmitoyl-Ahp}-Lys-His-Gly-OH) | 932.65 | significant increase | 56.19 | significant increase | – | – |
| CCCCCCCCCCCCCCCC(=O)N[C@@H](CCCC[N+](C)(C)C)C(=O)N[C@@H](C)C(=O)N[C@@H](C)C(=O)N[C@@H](C)C(=O)NCC(=O)N[C@@H](Cc1c[nH]cn1)C(=O)N[C@@H](CCCCN)C(=O)O [compound 234] (Palmitoyl-[Lys(Me3)]AAAGHK-OH) | 900.83 | significant increase | 49.53 | significant increase | 2356.91 | significant increase |
| NCCCC[C@H](NC(=O)CCCCCCNC(=O)CCCC[C@@H]1SC[C@@H]2NC(=O)N[C@@H]21)C(=O)N[C@@H](Cc1c[nH]cn1)C(=O)NCC(N)=O [compound 242] ({Biotin-Ahp}-Lys-His-Gly-NH2) | 1159.72 | significant increase | 70.24 | significant increase | – | – |
| C[N+](C)(C)CCCC[C@H](NC(=O)CCCC[C@@H]1SC[C@@H]2NC(=O)N[C@@H]21)C(=O)NCCCCCCC(=O)NCC(=O)N[C@@H](Cc1c[nH]cn1)C(=O)N[C@@H](CCCCNC(=O)[C@@H]1CCCN1)C(N)=O [compound 265] (Biotin-[Lys(Me3)][Ahp]GHK(Pro)-NH2) | 1008.26 | significant increase | 56.34 | significant increase | – | – |
| CNC(=O)CNC(=O)[C@H](Cc1c[nH]cn1)NC(=O)[C@H](CCCCN)NC(=O)[C@@H]1CCCN1C(=O)[C@@H]1CCCN1C(=O)[C@@H]1CCCN1C(C)=O [compound 286] (Ac-PPPKHG-NHMe) | 1096.59 | significant increase | 53.24 | significant increase | 2791.21 | significant increase |
| CCCCCCCCCCCCCCCC(=O)N1CCC[C@H]1C(=O)N1CCC[C@H]1C(=O)N1CCC[C@H]1C(=O)NCC(=O)N[C@@H](Cc1c[nH]cn1)C(=O)N[C@@H](CCCCN)C(=O)O [compound 294] (Palmitoyl-PPPGHK-OH) | 1037.26 | significant increase | 91.47 | significant increase | 1761.46 | significant increase |
| NCCCC[C@H](NC(=O)[C@H](Cc1c[nH]cn1)NC(=O)CNC(=O)[C@@H]1CCCN1C(=O)[C@@H]1CCCN1C(=O)[C@@H]1CCCN1C(=O)CCCC[C@@H]1SC[C@@H]2NC(=O)N[C@@H]21)C(N)=O [compound 296] (Biotin-PPPGHK-NH2) | 930.98 | significant increase | 88.1 | significant increase | 1686.42 | significant increase |
| C[C@H](NC(=O)[C@H](Cc1ccc(Cl)c(Cl)c1)NC(=O)CCCC[C@@H]1SC[C@@H]2NC(=O)N[C@@H]21)C(=O)N[C@@H](CCCCN)C(=O)N[C@@H](Cc1c[nH]cn1)C(=O)NCC(=O)N[C@@H](CCCC[N+](C)(C)C)C(N)=O [compound 419] (Biotin-[Phe(3,4-Cl2)]AKHG[Lys(Me3)]-NH2) | 1015.58 | significant increase | 109.96 | significant increase | – | – |
| CCCCCCCCCCCCCCCC(=O)N[C@@H](CCCC[N+](C)(C)C)C(=O)NCC(=O)N[C@@H](Cc1c[nH]cn1)C(=O)N[C@@H](CCCCN)C(=O)N[C@@H](C)C(=O)N[C@@H](Cc1ccc(C)cc1)C(=O)O [compound 424] (Palmitoyl-[Lys(Me3)]GHKA[Phe(4-Me)]-OH) | 897.36 | significant increase | 97.9 | significant increase | – | – |
